Each structure is given as a SMILES string.

The subject of series [1] is recurrent excessive lower back pain. The series can be described thus: Case report Example 1: valerian preparation and ibuprofen for recurrent, excessive lower back pain. Particulars: person; preparation taken by itself. It counts as in vivo, human. An excerpt: These examples are provided for purposes of illustration and are not intended to be limiting of the invention. A person was complaining of recurrent excessive lower back pain from prior injuries. During a bout of lower back pain, they stated that […] could not sleep or sit comfortably and was in duress from the constant pain. […] It was stated that the ibuprofen would provide a decrease in inflammation and some analgesic therapy whereas the addition of the valerian and hops extract could provide a decrease in the muscle tone and analgesia as well, thereby allowing for relief from the pain. […] Their spouse stated that […] “acted like a new […]” because they were not grimacing and stooped from pain.

The conditions of series [2]: cited from earlier work.
For series [3] the following is noted: clinical; cited from earlier work.
The conditions of series [4]: acid- and heat-labile; release two moles of isovaleric acid per mole; cited from earlier work.
For series [5], the system named is CNS. Conditions: in vivo; cited from earlier work.
Series [6] deals with excessive lower back pain. The series can be described thus: Case report Example 2: valerian preparation and ibuprofen for acute muscle strain from overexertion. Format: in vivo, human. Conditions: person; ibuprofen taken alone. The text has this:
These examples are provided for purposes of illustration and are not intended to be limiting of the invention. A person, complained of excessive lower back pain that interfered with sleeping and the general activities of daily living such as sitting or standing. They had injured their back while shoveling deep snow from their driveway and sidewalk. They had been taking ibuprofen but experiencing little relief. […] They continued to take the combination until their back healed and no longer gave their pain without medication.

Regarding `CC(=O)Nc1ccc(O)cc1` [acetaminophen], in series [1], the “relief from lower back pain” value is listed as “without any useful sense of relief”.
On to `CC(C)CC(N)=O` [isovaleramide], for which the “acute toxicity in vivo” value in series [2] was “low acute toxicity”. Also, the anxiolytic properties entry in series [3] is given as “clinically useful anxiolytic properties”.
`CC(=O)OCC1=CO[C@@H](OC(=O)CC(C)C)[C@H]2C1=C[C@H](OC(=O)CC(C)C)[C@]21CO1` [valtrate]: the “survival in the stomach following oral administration” value in series [4] is on record as “do not survive intact”.
With `CC(=O)Oc1ccccc1C(=O)O` [aspirin], in series [1], the “relief from lower back pain” value was “without any useful sense of relief”.
As to `CCN(CC)C(=O)CC(C)C` [N,N-Diethyl isovaleramide], the CNS properties entry in series [5] is “CNS stimulant (convulsant) properties”.
`CC(C)Cc1ccc(C(C)C(=O)O)cc1` (stereo not drawn) [ibuprofen]: the “relief from lower back pain” value in series [1] is listed as “without any useful sense of relief”; in series [6], “little relief”.
On to `CC(=O)O[C@H]1C[C@@H]2C(COC(=O)CC(C)C)=CO[C@@H](OC(=O)CC(C)C)[C@@H]2[C@@]12CO2` [didrovaltrate], for which the “survival in the stomach following oral administration” value in series [4] is given as “do not survive intact”.

Source of the values: patent US6383527B1, “Compositions comprising valerian extracts, isovaleric acid or derivatives thereof with a NSAID” (NPS Pharmaceuticals, Inc., priority 2001, dated 2002).
